The results in this text go back to US11939361B2, “Compositions of peptide inhibitors of Interleukin-23 receptor” (Janssen Pharmaceutica NV, priority 2020, dated 2024).

In general, half-life refers to the time needed for the level to fall by half in the phase considered. A higher half-life goes with slow decline. A word on the AUC: it is the area under the concentration-time curve, a measure of exposure. In general, Cmax refers to the highest concentration seen after dosing. For orientation: Tmax means the time at which the peak concentration occurs. A word on the IC50: it is the concentration at which inhibition is half-maximal.

One series is described as follows: clinical. Particulars: human, in vivo.
The subject of series [1] is rat trinitrobenzenesulfonic acid (TNBS)-induced colitis model. Nature of the series: Rat TNBS-induced colitis model, efficacy. Format: in vivo, Sprague-Dawley rats. The source says:
Intracolonic TNBS instillation in Sprague-Dawley rats induces colonic inflammation driven in part by IL-23/IL-23R signaling (Cheng X, Taranath R, Mattheakis L, Bhandari A, Liu D. The biomarker profile of PTG-200, an oral peptide antagonist of IL-23 receptor, tracks with efficacy in a preclinical model of IBD. J Crohns Colitis. AGA Abstracts, 2017). The TNBS rat model therefore provides a measure of the local GI effects of SEQ ID NO: 1 on IL-23/IL-23R signaling.
The peptide of SEQ ID NO: 1 was evaluated in the rat TNBS model with oral dosing only, three times a day (0.03, 0.1, 0.3, 1, 3, 10, mg/kg/day), in three independent rat TNBS experiments. In all studies, the peptide of SEQ ID NO: 1 was dosed starting 2 days prior to TNBS induction through day 6, with euthanasia scheduled on day 7.
Disease severity resulting from TNBS can be assessed by qualitative scoring of the formation of strictures, adhesions, ulceration, and increase in wall thickness as described previously. […] Based on this qualitative scoring, the peptide of SEQ ID NO: 1 at 0.1 mg/kg/day was considered to be the minimally efficacious dose for colonic score (FIG. 13).
Data from 3 different studies were combined (represented by shapes of the symbols at each dose level: study 1 (Δ), study 2 (♦), study 3 (∘); box at interquartile range, bars at minima/maxima). The colons were scored on the following parameters: adhesion (0-2), stricture (0-3), ulcer (0-5), and wall thickness (0-2) for a total sum component score range of 0-12. The colon score was reduced by treatment with the peptide of SEQ ID NO: 1 at doses of […] (ns=not significant, * p<0.05, *** p<0.001, **** p<0.0001).

Series [2] has as its system IL-23 and IL-1β-induced IL-17A secretion in whole blood. Nature of the series: Rat whole blood assay ex vivo after oral dosing, IL-17A ELISA. It counts as in vivo, Sprague-Dawley rats. The note with it: for inhibition of IL-23 and IL-1β-induced IL-17A secretion in whole blood: p.o., blood 2 h after dosing; for IC50: orally dosed rats, read-out: dilution-adjusted ex vivo IC50. The source says: A rat whole blood assay was used to evaluate the systemic pharmacologic activity of the orally administered peptide of SEQ ID NO: 1. After oral dosing Sprague-Dawley rats with the peptide of SEQ ID NO: 1, blood was drawn from the rats and stimulated ex-vivo with rat IL-23 plus IL-1β. An ELISA assay was used to measure the presence of IL-17A. The production of IL-17A is expected to be suppressed if IL-23 is inhibited. This assay confirms that systemic exposure of orally dosed peptide of SEQ ID NO: 1 is associated with systemic activity, as measured by lower IL-17A production.
Two or six hours after dosing, animals were euthanized and blood collected as described based on the following.
For determination of peptide concentration, an aliquot of blood from peptide-treated rats was deposited into K2EDTA microtainer tubes and processed to plasma by centrifugation at 16,100×g for 5 minutes. Plasma was deposited into 5% volume of protease inhibitor (1 cocktail tablet dissolved in 2 mL PBS without Ca^++ and Mg^++) and stored at −80° C. for bioanalysis of test article by LCMS. The remainder of each blood sample was separately diluted in pre-warmed RPMI-1640 (with glutamine and HEPES) at a ratio of one part blood to four parts medium. The diluted blood was mixed by pipetting and kept at room temperature while working stocks of rat IL-23 and IL-1β were prepared in RPMI-1640. The blood was mixed again and 240 μL was pipetted per well into 96-well, round-bottom assay plates, followed by IL-23 and IL-1β stimulation as described below.
A total of 10 μL of medium supplemented with IL-23 and IL-1β or IL-1β alone was added to each well of diluted blood such that the final concentration of IL-23 was 100, 20, or 4 ng/mL and the final concentration of IL-1β was 4 ng/mL. The assay plates were incubated at 37° C. in 5% CO2. After ˜24 hours, the assay plates were centrifuged at 1,300 rpm for 6 minutes at room temperature, and at least 100 μL of cell culture supernatant were collected into 96-well, V-bottom plates. The plates containing supernatants were sealed and placed on ice for immediate measurement of IL-17A or frozen at −80° C.
To measure IL-17A in cell culture supernatants, the thawed supernatants were centrifuged at 1,300 rpm for 10 minutes at 4° C. A total of 20 μL of cell culture supernatant was mixed with 80 μL of NS buffer (provided with the rat IL-17A ELISA kit). The diluted samples as well as a freshly prepared serial titration of rat IL-17A (for standard curve) were combined with affinity tag labeled capture and reporter conjugated detector antibodies in 96-well plates (provided with the rat IL-17A ELISA kit). Following a 1-hour incubation at room temperature with shaking, each well was washed 3 times with 350 μL/well wash buffer. After the final wash, the plates were inverted and blotted to remove excess liquid. The plates were developed with TMB substrate for 10 minutes, protected from light, with shaking. After stopping the colorimetric reaction, the absorbance in individual wells was read at 450 nm using a SpectraMax 340PC plate reader.
A standard curve was generated in duplicate for each ELISA plate. The standard curve data were analyzed with a four-parameter curve fit with 1/y^2 weighting using SoftMax Pro software. Supernatant IL-17A levels were interpolated or extrapolated from plate-specific standard curves using non-background subtracted optical density at 450 nm (OD450) values in SoftMax Pro and corrected for the dilution factor used in the ELISA assay in Microsoft Excel.
On the technique in general: An ELISA detects its analyte on a solid surface through an enzyme-linked reagent.

Each structure is given as a SMILES string. Read-outs that look alike come from different tables or passages of the source.

With `CC(=O)NCCCC[C@@H]1NC(=O)[C@H](Cc2c[nH]c3c(C)cccc23)NC(=O)[C@H]([C@@H](C)O)NC(=O)[C@H](CC(N)=O)NC(=O)[C@@H](NC(C)=O)C(C)(C)SSC(C)(C)[C@@H](C(=O)N[C@@H](Cc2ccc(OCCN)cc2)C(=O)N[C@@H](Cc2ccc3ccccc3c2)C(=O)NC2(C(=O)N[C@@H](CCC(=O)O)C(=O)N[C@@H](CC(N)=O)C(=O)N[C@@H](Cc3cccnc3)C(=O)N(C)CC(N)=O)CCOCC2)NC1=O` [SEQ ID NO: 1, Ac-[Pen]*—N-T-[W(7-Me)]-[Lys(Ac)]-[Pen]*-Phe[4-(2-aminoethoxy)]-[2-Nal]-[THP]-E-N-[3-Pal]-Sarc-NH2], the half-life in the series “clinical” is 10 to 12 h; in “clinical” (po, 300 mg), 9.28 h. For the same compound, the AUC in the series “clinical” (po, 10 mg) was 1.56 ng·h/mL; in the series “clinical” (po, 25 mg), 6.47 ng·h/mL; in the series “clinical” (po, 100 mg) it was 20.8 ng·h/mL; in the series “clinical” (po, 300 mg), 51 ng·h/mL; in “clinical” (po, 1000 mg) it was 141 ng·h/mL. Further, in the series “clinical” (po, 1000 mg), the concentration peaked (Cmax) at 8.3 ng/mL. Also, the Tmax in “clinical” (po, 1000 mg) was determined as 4.5 h. Besides, the TNBS-induced weight loss entry in series [1] (0.03, 0.1, 0.3, 1, 3, and 10 mg/kg/day, all 3 studies) is “prevented and reversed”. Besides, the “minimally efficacious dose, body weight” value in series [1] (day 7 as the study endpoint) was 0.3 mg/kg/day. Moreover, the “minimal efficacious dose, TNBS-induced colitis model (summary)” value in series [1] (rat, in vivo) is 0.3 mg/kg/day. Also, the “minimally efficacious dose, colonic score” value in series [1] (rat, in vivo) is on record as 0.1 mg/kg/day. Also, the “median IL-17A production relative to vehicle control” value in series [2] (10 mg/kg p.o., 2 hours post-dosing, 100, 20, or 4 ng/mL IL-23 and 4 ng/mL IL-1β) was “significantly reduced”. Besides, in series [2] (10 mg/kg p.o., 6 hours post-dosing, 4 ng/mL IL-23), the “median IL-17A levels” value is recorded as “significant decrease”. Moreover, in series [2] (10 mg/kg p.o., 6 hours post-dosing, 100 and 20 ng/mL IL-23 and IL-1β), the “effect on ex vivo IL-17A response” value is reported as “no significant effect”. Moreover, the “inhibition of IL-23 and IL-1β-induced IL-17A secretion in whole blood” value in series [2] (0.03-100 mg/kg) was “dose-dependent inhibition”; in series [2] (doses of 1 mg/kg or lower) it was “limited effect”; in series [2] (doses of 30 and 100 mg/kg), “complete or nearly complete inhibition”. Further, the IC50 worked out at 0.032 nM in series [2] (blood challenged with 4 ng/mL IL-23 plus 4 ng/mL IL-1β) and 0.27 nM in series [2] (blood challenged with 20 ng/mL IL-23 plus 4 ng/mL IL-1β).
